Data as given in the supplement of paper PMC10307832.

Experiments:
Test in all cases: relative viability (nuclei count vs DMSO), 5 days (fraction); higher = more cells survive
Zosuquidar + Decitabine = compound: O[C@@H](COc1cccc2ncccc12)CN1CCN([C@@H]2c3ccccc3[C@@H]3[C@H](c4ccccc42)C3(F)F)CC1 [Zosuquidar] + Nc1ncn([C@H]2C[C@H](O)[C@@H](CO)O2)c(=O)n1 [Decitabine] (partner 2 µM)
Summary of the method: (§1)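 Lung cancer cell lines, seeded in 1536-well plates, were treated the following day by pin tool with a single drug or with five library-drug doses (not always all listed) in √10 steps on top of a fixed anchor-drug dose. Cells were fixed and nuclei stained in one step after 5 days, and nuclei were counted. Relative viability is the nuclei count for treated wells divided by that for vehicle wells, reported as medians of duplicate plates.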

Zosuquidar + Tozasertib = compound: O[C@@H](COc1cccc2ncccc12)CN1CCN([C@@H]2c3ccccc3[C@@H]3[C@H](c4ccccc42)C3(F)F)CC1 [Zosuquidar] + Cc1cc(Nc2cc(N3CCN(C)CC3)nc(Sc3ccc(NC(=O)C4CC4)cc3)n2)n[nH]1 [Tozasertib] (partner 0.1 µM)
Summary of the method: as §1

Kobe2602 + Foretinib = compound: C1=CC(=CC=C1NC(=S)NNC2=C(C=C(C=C2[N+](=O)[O-])C(F)(F)F)[N+](=O)[O-])F [Kobe2602] + COc1cc2c(Oc3ccc(NC(=O)C4(C(=O)Nc5ccc(F)cc5)CC4)cc3F)ccnc2cc1OCCCN1CCOCC1 [Foretinib] (partner 0.25 µM)
Summary of the method: as §1

[1] = compound: COc1cc2nccc(Oc3ccc(NC(=O)C4(C(=O)Nc5ccc(F)cc5)CC4)cc3)c2cc1OC [Cabozantinib] + Nc1nc2[nH]cc(CCc3ccc(C(=O)N[C@@H](CCC(=O)O)C(=O)O)cc3)c2c(=O)[nH]1 [Pemetrexed] (partner 0.2 µM)
Summary of the method: as §1

Cell Line | relative viability (Zosuquidar + Decitabine; first compound 0.01 µM) | relative viability (Zosuquidar + Decitabine; first compound 0.03162 µM) | relative viability (Zosuquidar + Decitabine; first compound 0.1 µM) | relative viability (Zosuquidar + Decitabine; first compound 0.3162 µM) | relative viability (Zosuquidar + Decitabine; first compound 1 µM) | relative viability (Zosuquidar + Tozasertib; first compound 0.01 µM) | relative viability (Zosuquidar + Tozasertib; first compound 0.03162 µM) | relative viability (Zosuquidar + Tozasertib; first compound 0.1 µM) | relative viability (Zosuquidar + Tozasertib; first compound 0.3162 µM) | relative viability (Zosuquidar + Tozasertib; first compound 1 µM) | relative viability (Kobe2602 + Foretinib; first compound 0.2 µM) | relative viability (Kobe2602 + Foretinib; first compound 0.6325 µM) | relative viability (Kobe2602 + Foretinib; first compound 2 µM) | relative viability (Kobe2602 + Foretinib; first compound 6.325 µM) | relative viability (Kobe2602 + Foretinib; first compound 20 µM) | relative viability ([1]; first compound 0.02 µM) | relative viability ([1]; first compound 0.06325 µM) | relative viability ([1]; first compound 0.6325 µM) | relative viability ([1]; first compound 2 µM) | relative viability ([1]; first compound 0.2 µM)
PC-3 [JPC-3] | 0.886 | 0.925 | 0.791 | 0.859 | 0.79 | 0.844 | 0.835 | 0.879 | 0.824 | 0.897 | 1.02 | 1.18 | 0.994 | 1.03 | 1.07 | 0.971 | 1.43 | 1.07 | 1.2 | 
HARA | 0.474 | 0.542 | 0.607 | 0.492 | 0.629 | 0.111 |  | 0.112 | 0.0991 | 0.102 | 0.996 | 0.795 | 0.893 | 0.856 | 0.892 | 0.244 | 0.234 | 0.279 | 0.226 | 
NCI-H2347 | 0.689 | 0.648 | 0.657 | 0.694 | 0.643 | 0.593 | 0.575 | 0.555 | 0.691 | 0.543 | 1.32 | 1.38 | 0.83 | 0.63 | 0.868 | 0.422 | 0.481 | 0.442 | 0.371 | 0.429
LOU-NH91 | 0.805 | 0.814 | 0.703 | 0.834 | 0.761 | 0.697 | 0.624 |  | 0.706 | 0.71 | 0.95 | 0.964 | 0.954 | 0.9 | 0.92 | 0.424 | 0.366 | 0.371 | 0.413 | 0.487
LC-2-ad | 0.878 | 0.922 | 0.876 | 0.725 | 0.776 | 0.461 | 0.491 | 0.51 | 0.522 | 0.463 | 0.94 | 0.946 | 0.932 | 1.03 | 0.996 | 0.279 | 0.285 | 0.278 | 0.253 | 0.271
LCLC-97TM1 | 0.27 | 0.217 |  | 0.253 | 0.224 | 0.202 | 0.266 | 0.167 | 0.208 | 0.212 | 0.834 | 0.928 | 1.01 | 0.956 | 0.924 | 0.155 | 0.179 | 0.17 | 0.17 | 0.181
EKVX | 0.299 | 0.414 |  | 0.334 | 0.36 | 0.394 | 0.436 | 0.389 | 0.369 | 0.348 | 1.05 | 0.753 | 0.7 | 0.839 | 1.03 | 0.376 | 0.477 | 0.467 | 0.461 | 0.352
NCI-H441 | 0.234 | 0.249 | 0.235 | 0.248 | 0.251 | 0.475 | 0.723 | 0.819 | 0.709 | 0.609 | 0.884 | 0.901 | 0.978 | 1.02 | 0.914 | 0.243 | 0.237 | 0.229 | 0.235 | 0.288
HCC-827 | 0.302 | 0.367 | 0.266 | 0.307 | 0.295 | 0.413 | 0.369 | 0.401 | 0.386 | 0.386 | 0.999 | 1.11 | 1.03 | 1.04 | 1.1 | 0.266 | 0.251 | 0.214 | 0.274 | 
NCI-H838 | 0.488 | 0.49 | 0.486 | 0.496 | 0.502 | 0.264 | 0.316 | 0.273 | 0.291 | 0.285 | 0.934 | 1.13 | 0.93 | 0.971 | 1.03 | 0.276 | 0.263 | 0.288 | 0.244 | 0.234
CAL-12T |  |  |  |  |  | 0.263 | 0.289 | 0.329 | 0.333 | 0.286 | 1.02 | 1.02 | 1.09 | 1.05 | 1.06 | 1.37 | 1.14 | 1.19 | 1.09 | 1.25
NCI-H2342 | 0.703 | 0.801 | 0.721 | 0.738 | 0.717 | 0.499 | 0.468 | 0.55 | 0.608 | 0.597 | 1.08 | 1.16 | 0.968 | 0.991 | 1.23 | 0.711 | 0.828 | 0.86 | 0.729 | 0.83
SW 900 | 0.478 | 0.466 |  | 0.394 | 0.421 | 0.581 | 0.583 | 0.573 | 0.665 | 0.473 | 0.979 | 0.926 | 0.821 | 0.854 | 0.993 | 0.47 | 0.482 | 0.448 | 0.448 | 0.486
IA-LM |  |  |  |  |  |  |  |  |  |  | 1.09 | 1.01 | 0.953 | 1.24 | 1.01 |  |  |  |  | 
EPLC-272H | 0.393 | 0.429 | 0.4 | 0.392 | 0.376 | 0.192 | 0.245 | 0.358 | 0.261 | 0.253 | 0.41 | 0.937 | 0.667 | 0.668 | 0.796 | 0.368 | 0.37 | 0.318 | 0.282 | 0.301
A-427 | 0.582 | 0.561 | 0.584 | 0.653 | 0.557 | 0.205 | 0.247 | 0.271 | 0.218 | 0.192 | 0.983 | 1.21 | 1.06 | 1.1 | 1.08 | 0.949 | 1.04 | 1.02 | 1 | 0.995
NCI-H727 | 0.823 | 0.906 |  | 0.794 | 0.887 | 0.675 | 0.484 | 0.45 | 0.439 | 0.401 | 0.855 | 0.991 | 0.919 | 1.1 | 0.873 |  |  |  |  | 
